Patent publication US7875647B2, “Heteroaryl-pyrazole derivatives as cannabinoid CB1 receptor antagonists” (Green Cross Corporation, priority 2006, dated 2011)
Read-outs that look alike come from different tables or passages of the source.

Molecular target: T1, Cannabinoid-1 receptor (CB1R) (Rattus norvegicus, UniProt P20272)
T1 construct: The tissue obtained from the brain of SD rats was homogenized; from tissue; host or cells: brain of SD rats (membrane pellet of the homogenate)
Assay: Cannabinoid-1 receptor (CB1R) binding affinity assay ([3H]CP-55940, rat CB-1 receptor binding protocol)
Conditions: brain tissue of SD rats, [3H]CP-55940, 30° C. 60 min

T1 sequence (P20272 whole entry): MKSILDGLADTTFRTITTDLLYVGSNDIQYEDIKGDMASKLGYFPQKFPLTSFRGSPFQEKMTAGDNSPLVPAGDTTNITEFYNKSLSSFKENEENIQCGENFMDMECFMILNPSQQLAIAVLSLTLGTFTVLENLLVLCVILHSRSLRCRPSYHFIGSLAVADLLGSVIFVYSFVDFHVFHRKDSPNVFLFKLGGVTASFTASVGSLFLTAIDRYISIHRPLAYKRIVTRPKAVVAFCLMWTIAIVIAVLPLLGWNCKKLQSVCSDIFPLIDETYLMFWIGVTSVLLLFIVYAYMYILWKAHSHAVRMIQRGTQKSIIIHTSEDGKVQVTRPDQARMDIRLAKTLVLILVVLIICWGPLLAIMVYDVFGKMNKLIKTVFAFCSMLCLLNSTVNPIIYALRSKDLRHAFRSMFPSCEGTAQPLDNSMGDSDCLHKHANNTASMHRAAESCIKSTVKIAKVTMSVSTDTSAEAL

| Compound | IC50 (read-out: IC50) | IC50 (IC50(nM)) |
| --- | --- | --- |
| CC(C)(C)c1nnc(-c2nn(-c3ccc(Cl)cc3Cl)c(-c3ccc(Cl)cc3)c2COc2ccccn2)o1 [Example 234, 2-tert-butyl-5-(5-(4-chlorophenyl)-1-(2,4-dichlorophenyl)-4-((pyridin-2-yloxy)methyl)-1H-pyrazol-3-yl)-1,3,4-oxadiazole] | 24.4 nM |  |
| CCCOC(C)(C)c1nnc(-c2nn(-c3ccc(Cl)cc3Cl)c(-c3ccc(Cl)cc3)c2C)o1 [Example 235, 2-(5-(4-chlorophenyl)-1-(2,4-dichlorophenyl)-4-methyl-1H-pyrazol-3-yl)-5-(2-propoxypropan-2-yl)-1,3,4-oxadiazole] | 42 nM |  |
| CCCCC(OCc1ccccc1)c1nnc(-c2nn(-c3ccc(Cl)cc3Cl)c(-c3ccc(Cl)cc3)c2C)o1 (stereo not shown) [Example 236, 2-(1-(benzyloxy)pentyl)-5-(5-(4-chlorophenyl)-1-(2,4-dichlorophenyl)-4-methyl-1H-pyrazol-3-yl)-1,3,4-oxadiazole] | 177 nM |  |
| C=CCOC(C)(C)c1nnc(-c2nn(-c3ccc(Cl)cc3Cl)c(-c3ccc(Cl)cc3)c2C)o1 [Example 237, 2-(2-(allyloxy)propan-2-yl)-5-(5-(4-chlorophenyl)-1-(2,4-dichlorophenyl)-4-methyl-1H-pyrazol-3-yl)-1,3,4-oxadiazole] | 17.3 nM |  |
| C=CCOC(C)(C)c1nnc(-c2nn(-c3ccc(Cl)cc3Cl)c(-c3ccc(Br)cc3)c2CC)o1 [Example 238, 2-(2-(allyloxy)propan-2-yl)-5-(5-(4-bromophenyl)-1-(2,4-dichlorophenyl)-4-ethyl-1H-pyrazol-3-yl)-1,3,4-oxadiazole] | 18.4 nM |  |
| C=CCOC(C)(C)c1nnc(-c2nn(-c3ccc(Cl)cc3Cl)c(-c3ccc(Cl)cc3)c2CC)o1 [Example 239, 2-(2-(allyloxy)propan-2-yl)-5-(5-(4-chlorophenyl)-1-(2,4-dichlorophenyl)-4-ethyl-1H-pyrazol-3-yl)-1,3,4-oxadiazole] | 4.48 nM |  |
| CCc1c(-c2nnc(C(C)(C)OCCCO)o2)nn(-c2ccc(Cl)cc2Cl)c1-c1ccc(Br)cc1 [Example 240, 3-(2-(5-(5-(4-bromophenyl)-1-(2,4-dichlorophenyl)-4-ethyl-1H-pyrazol-3-yl)-1,3,4-oxadiazol-2-yl)propan-2-yloxy)propan-1-ol] | 13.7 nM |  |
| CCCCC(O)c1nnc(-c2nn(-c3ccc(Cl)cc3Cl)c(-c3ccc(Cl)cc3)c2C)o1 (stereo not shown) [Example 241, 1-(5-(5-(4-chlorophenyl)-1-(2,4-dichlorophenyl)-4-methyl-1H-pyrazol-3-yl)-1,3,4-oxadiazol-2-yl)pentan-1-ol] | 73.4 nM |  |
| Cc1c(-c2nnc([C@H]3C[C@H]3C(=O)N3CCCCC3)o2)nn(-c2ccc(Cl)cc2Cl)c1-c1ccc(Cl)cc1 [Example 242, ((1R,2S)-2-(5-(5-(4-chlorophenyl)-1-(2,4-dichlorophenyl)-4-methyl-1H-pyrazol-3-yl)-1,3,4-oxadiazol-2-yl)cyclopropyl)(piperidin-1-yl)methanone] | 67.3 nM |  |
| CCCCOC(C)(C)c1nnc(-c2nn(-c3ccc(Cl)cc3Cl)c(-c3ccc(Cl)cc3)c2C)o1 [Example 243, 2-(2-butoxypropan-2-yl)-5-(5-(4-chlorophenyl)-1-(2,4-dichlorophenyl)-4-methyl-1H-pyrazol-3-yl)-1,3,4-oxadiazole] |  | 9.78 nM |
| CCCCCOC(C)(C)c1nnc(-c2nn(-c3ccc(Cl)cc3Cl)c(-c3ccc(Cl)cc3)c2C)o1 [Example 244, 2-(5-(4-chlorophenyl)-1-(2,4-dichlorophenyl)-4-methyl-1H-pyrazol-3-yl)-5-(2-(pentyloxy)propan-2-yl)-1,3,4-oxadiazole] |  | 15.1 nM |
| Cc1c(-c2nnc(C(C)(C)OCc3ccccc3)o2)nn(-c2ccc(Cl)cc2Cl)c1-c1ccc(Cl)cc1 [Example 245, 2-(2-(benzyloxy)propan-2-yl)-5-(5-(4-chlorophenyl)-1-(2,4-dichlorophenyl)-4-methyl-1H-pyrazol-3-yl)-1,3,4-oxadiazole] | 9.41 nM |  |
| Cc1c(-c2nnc(C(C)(C)OCc3ccccc3F)o2)nn(-c2ccc(Cl)cc2Cl)c1-c1ccc(Cl)cc1 [Example 248, 2-(5-(4-Chlorophenyl)-1-(2,4-dichlorophenyl)-4-methyl-1H-pyrazol-3-yl)-5-(2-(2-fluorobenzyloxy)propan-2-yl)-1,3,4-oxadiazole] | 25.1 nM |  |
| Cc1c(-c2nnc(C(C)(C)OCc3cccc(Cl)c3)o2)nn(-c2ccc(Cl)cc2Cl)c1-c1ccc(Cl)cc1 [Example 249, 2-(2-(3-Chlorobenzyloxy)propan-2-yl)-5-(5-(4-chlorophenyl)-1-(2,4-dichlorophenyl)-4-methyl-1H-pyrazol-3-yl)-1,3,4-oxadiazole] |  | 11.1 nM |
| COC(c1ccccc1)(c1nnc(-c2nn(-c3ccc(Cl)cc3Cl)c(-c3ccc(Cl)cc3)c2C)o1)C(F)(F)F (stereo not shown) [Example 251, 2-(5-(4-chlorophenyl)-1-(2,4-dichlorophenyl)-4-methyl-1H-pyrazol-3-yl)-5-(2,2,2-trifluoro-1-methoxy-1-phenylethyl)-1,3,4-oxadiazole] | 12.8 nM |  |
| CC(=O)OCC(C)(C)c1nnc(-c2nn(-c3ccc(Cl)cc3Cl)c(-c3ccc(Cl)cc3)c2C)o1 [Example 252, 2-(5-(5-(4-chlorophenyl)-1-(2,4-dichlorophenyl)-4-methyl-1H-pyrazol-3-yl)-1,3,4-oxadiazol-2-yl)-2-methylpropyl acetate] | 54.5 nM |  |

| Compound | IC50 (read-out: IC50) | IC50 (IC50(nM)) |
| --- | --- | --- |
| Cc1c(-c2nnc(C(C)(C)CO)o2)nn(-c2ccc(Cl)cc2Cl)c1-c1ccc(Cl)cc1 [Example 253, 2-(5-(5-(4-chlorophenyl)-1-(2,4-dichlorophenyl)-4-methyl-1H-pyrazol-3-yl)-1,3,4-oxadiazol-2-yl)-2-methylpropan-1-ol] | 97.9 nM |  |
| Cc1c(-c2nnc(C(C)(C)COCc3ccccc3)o2)nn(-c2ccc(Cl)cc2Cl)c1-c1ccc(Cl)cc1 [Example 254, 2-(1-(Benzyloxy)-2-methylpropan-2-yl)-5-(5-(4-chlorophenyl)-1-(2,4-dichlorophenyl)-4-methyl-1H-pyrazol-3-yl)-1,3,4-oxadiazole] | 492 nM |  |
| Cc1c(-c2nnc(C3(c4cccc(Cl)c4)CC3)o2)nn(-c2ccc(Cl)cc2Cl)c1-c1ccc(Cl)cc1 [Example 257, 2-(5-(4-chlorophenyl)-1-(2,4-dichlorophenyl)-4-methyl-1H-pyrazol-3-yl)-5-(1-(3-chlorophenyl)cyclopropyl)-1,3,4-oxadiazole] | 11.3 nM |  |
| CCc1c(-c2nnc(C3(c4cccc(Cl)c4)CC3)o2)nn(-c2ccc(Cl)cc2Cl)c1-c1ccc(Cl)cc1 [Example 258, 2-(5-(4-chlorophenyl)-1-(2,4-dichlorophenyl)-4-ethyl-1H-pyrazol-3-yl)-5-(1-(3-chlorophenyl)cyclopropyl)-1,3,4-oxadiazole] | 8.72 nM |  |
| C=CCC1(c2nnc(-c3nn(-c4ccc(Cl)cc4Cl)c(-c4ccc(Br)cc4)c3CC)o2)CC1 [Example 259, 2-(1-allylcyclopropyl)-5-(5-(4-bromophenyl)-1-(2,4-dichlorophenyl)-4-ethyl-1H-pyrazol-3-yl)-1,3,4-oxadiazole] |  | 9.57 nM |
| C#Cc1c(-c2nnc(C(C)(C)C)o2)nn(-c2ccc(Cl)cc2Cl)c1-c1ccc(Cl)cc1 [Example 260, 2-tert-butyl-5-(5-(4-chlorophenyl)-1-(2,4-dichlorophenyl)-4-ethynyl-1H-pyrazol-3-yl)-1,3,4-oxadiazole] | 10.6 nM |  |
| CC#Cc1c(-c2nnc(C(C)(C)C)o2)nn(-c2ccc(Cl)cc2Cl)c1-c1ccc(Cl)cc1 [Example 261, 2-tert-butyl-5-(5-(4-chlorophenyl)-1-(2,4-dichlorophenyl)-4-(prop-1-ynyl)-1H-pyrazol-3-yl)-1,3,4-oxadiazole] | 15.4 nM |  |
| CCc1c(-c2nnc(C3(C#N)CC3)o2)nn(-c2ccc(Cl)cc2Cl)c1-c1ccc(Br)cc1 [Example 266, 1-(5-(5-(4-bromophenyl)-1-(2,4-dichlorophenyl)-4-ethyl-1H-pyrazol-3-yl)-1,3,4-oxadiazol-2-yl)cyclopropanecarbonitrile] | 15.5 nM |  |
| Cc1c(-c2nnc(C3(C#N)CC3)o2)nn(-c2ccc(Cl)cc2Cl)c1-c1ccc(Cl)cc1 [Example 267, 1-(5-(5-(4-chlorophenyl)-1-(2,4-dichlorophenyl)-4-methyl-1H-pyrazol-3-yl)-1,3,4-oxadiazol-2-yl)cyclopropanecarbonitrile] | 95.3 nM |  |
| CCc1c(-c2nnc(C3(C#N)CC3)o2)nn(-c2ccc(Cl)cc2Cl)c1-c1ccc(Cl)cc1 [Example 268, 1-(5-(5-(4-chlorophenyl)-1-(2,4-dichlorophenyl)-4-ethyl-1H-pyrazol-3-yl)-1,3,4-oxadiazol-2-yl)cyclopropanecarbonitrile] | 83.8 nM |  |
| Cc1c(-c2nnc(C3(c4ccccn4)CC3)o2)nn(-c2ccc(Cl)cc2Cl)c1-c1ccc(Cl)cc1 [Example 269, 2-(5-(4-chlorophenyl)-1-(2,4-dichlorophenyl)-4-methyl-1H-pyrazol-3-yl)-5-(1-(pyridin-2-yl)cyclopropyl)-1,3,4-oxadiazole] | 19.9 nM |  |
| Cc1c(-c2nnc(C3(Cc4ccccc4)CC3)o2)nn(-c2ccc(Cl)cc2Cl)c1-c1ccc(Cl)cc1 [Example 270, 2-(1-benzylcyclopropyl)-5-(5-(4-chlorophenyl)-1-(2,4-dichlorophenyl)-4-methyl-1H-pyrazol-3-yl)-1,3,4-oxadiazole] | 15 nM |  |
| CCc1c(-c2nnc(C3(c4ccc(F)cc4)CC3)o2)nn(-c2ccc(Cl)cc2Cl)c1-c1ccc(Br)cc1 [Example 272, 2-(5-(4-bromophenyl)-1-(2,4-dichlorophenyl)-4-ethyl-1H-pyrazol-3-yl)-5-(1-(4-fluorophenyl)cyclopropyl)-1,3,4-oxadiazole] | 5.8 nM |  |
| CCc1c(-c2nnc(C3(c4cccc(Cl)c4)CC3)o2)nn(-c2ccc(Cl)cc2Cl)c1-c1ccc(Br)cc1 [Example 273, 2-(5-(4-bromophenyl)-1-(2,4-dichlorophenyl)-4-ethyl-1H-pyrazol-3-yl)-5-(1-(3-chlorophenyl)cyclopropyl)-1,3,4-oxadiazole] |  | 2.32 nM |
| Cc1c(-c2nnc(C3(c4ccc(F)cc4)CC3)o2)nn(-c2ccc(Cl)cc2Cl)c1-c1ccc(Cl)cc1 [Example 274, 2-(5-(4-chlorophenyl)-1-(2,4-dichlorophenyl)-4-methyl-1H-pyrazol-3-yl)-5-(1-(4-fluorophenyl)cyclopropyl)-1,3,4-oxadiazole] | 12.3 nM |  |
